Assay results published in patent publication US20130281313A1, “PROGNOSTIC AND/OR PREDICTIVE BIOMARKERS AND BIOLOGICAL APPLICATIONS THEREOF” (INSTITUT GUSTAVE ROUSSY, priority 2010, published 2013).

Key:
A549 cells = assay: Cytofluorometric assessment of cell death (DiOC6(3)/PI co-staining); type: cell-based, human
Protocol: Unless otherwise specified, chemicals were purchased from Sigma-Aldrich (St. Louis, USA), culture media and supplements for cell culture from Gibco-Invitrogen (Carlsbad, USA) and plasticware from Corning (Corning, USA). […] Orlistat (Xenical®) was obtained from Roche (Basel, Switzerland). […] Undissolved material was removed by two sequential rounds of centrifugation at 12,000 G (5 min, room temperature, RT), supernatants were collected and stored at −80° C. under protection from light until use. In low-throughput experiments, all cell lines were treated with 2.5 mM pyridoxine (PN), exception made for A549 cells that received 5 mM PN.
To avoid depleting the siRNA library of selected sequences, siRNAs for validation experiments were purchased as custom molecules from Sigma-Aldrich. For low-throughput experiments, (see below for the transfection protocols employed in the siRNA screen), siRNA were transfected in A549 cells with Oligofectamine™ reagent (Invitrogen), following the manufacturer's instructions. Transfection with a non-targeting siRNA (siUNR) was employed as a negative control condition. Forty-eight hours after transfection, siRNA-mediated target downregulation was assessed by immunoblotting (see below).
All cytofluorometric determinations were carried out a FACSCalibur or a FACScan cytofluorometer (BD Biosciences, San Jose, USA) equipped with a 70 μm nozzle.
First line statistical analysis of cytofluorometric results was performed by using the CellQuest™ software (BD Biosciences), by gating on the events characterized by normal forward scatter and side scatter parameters. Apoptosis- and cell cycle-related data were further analyzed with Microsoft Excel (Microsoft Co., Redmond, USA) and statistical significance was assessed by means of two-tailed Student's t test (p<0.05).

[1] = tested on: A549 cells xenografted into immunodeficient Swiss nude mice; assay: Tumor graft model: A549 cells in Swiss nude mice; type: in vivo, mouse; conditions: A549 cells on Swiss nude mice; 5 mg/kg intraperitoneal CDDP + intraperitoneal Orlistat (240 mg/Kg), three times a week
Protocol: (§1) C57BL/6 (H-2b) and Swiss Nude mice were obtained from Janvier (Le Genest St. Isle, France) and Charles River, respectively. Animals were maintained in pathogen-free conditions, and all experiments were carried out (upon approval by the local ethical committee) according to the Federation of European Laboratory Animal Science Association (FELASA) guidelines. Mice were used between 6 and 12 weeks of age. During the experiments, animals were subjected to artificial light cycle (12 h lights on-12 h lights off) and allowed food and drink ad libitum.
(§2) 5×10^5 LLC and A549 cells were subcutaneously xenografted (in 100 μL sterile PBS) in 25-30 immunocompetent (C57BL/6) and immunodeficient (Swiss Nude) mice, respectively. When the surface of tumors reached 25-40 mm^2, n=4-6 mice were assigned to either of 4 different treatment groups: group 1=100 μL intraperitoneal PBS; group 2=5 mg/kg intraperitoneal CDDP in 100 μL PBS; group 3=240 mg/Kg intraperitoneal Orlistat® in 40 μL PBS; group 4=5 mg/kg intraperitoneal CDDP in 100 μL PBS+intraperitoneal Orlistat® in 40 μL PBS. Treatments were administered three times a week (day 1, 3 and 5; day 8=day 1). Tumor size was monitored on the day of treatment by means of a standard calliper and tumor volume was extrapolated as previously described {Streit, 1999}. […] Statistical significance was evaluated by two-way ANOVA.

[2] = tested on: murine Lewis lung carcinoma (LLC) cells in immunocompetent C57BL/6 mice; assay: Tumor graft model: LLC cells in C57BL/6 mice; type: in vivo, mouse; conditions: 5 mg/kg intraperitoneal CDDP + intraperitoneal Orlistat (240 mg/Kg), three times a week
Protocol: as §1, §2

CCCCCCCCCCC[C@@H](C[C@@H]1OC(=O)[C@H]1CCCCCC)OC(=O)[C@H](CC(C)C)NC=O [Orlistat®, Orlistat]
cytotoxicity of CDDP upon pharmacological inhibition of LIPC (A549 cells; A549 cells in vitro, 25 or 75 μM CDDP): enhanced the cytotoxiticy of CDDP against A549 cells in vitro
CDDP-induced killing, LIPC inhibition (orlistat) combined with IL6R inhibition (A549 cells; A549 cells, followed by CDDP, DiOC6(3)/PI co-staining): synergistically sensitized to CDDP-induced killing
antitumor effects of CDDP-based chemotherapy (tumor growth) [1]: augmented the antitumor effects of CDDP-based chemotherapy in vivo
antitumor effects of CDDP-based chemotherapy (tumor growth) [2]: augmented the antitumor effects of CDDP-based chemotherapy in vivo
